# Source: article PMC7901646, “Pyrrolo[2′,3′:3,4]cyclohepta[1,2-d][1,2]oxazoles, a New Class of Antimitotic Agents Active against Multiple Malignant Cell Types” (Journal of Medicinal Chemistry, 2020)
# Key:
# Format in all cases: cell-based
# [1] = test system: UACC-257; test: NCI-60 screen; conditions: Homo sapiens, Melanoma
# How it was run: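 One-concentration screen (10^–5 M) across the complete panel of sixty human cancer cell lines from nine tissue origins.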
# [2] = test system: HeLa cells; test: Annexin-V/PI apoptosis assay
# Procedure: To analyze the mode of cell death induced by compound 66 in HeLa cells, we utilized a double labeling assay of the cells with annexin-V and PI. This procedure, through a flow cytometric analysis, distinguishes four different cell populations: live cells (annexin-V^–/PI^–), early apoptotic cells (annexin-V^+/PI^–), late apoptotic cells (annexin-V^+/PI^+), and necrotic cells (annexin-V^–/PI^+).
# Cell death was determined by flow cytometry of cells double stained with annexin V/FITC and PI. The Coulter Cytomics FC500 (Beckman Coulter) was used to measure the surface exposure of phosphatidylserine on apoptotic cells according to the manufacturer’s instructions (Annexin-V Fluos, Roche Diagnostics).
# [3] = test system: Mcl-1; test: Western blot, apoptosis proteins; conditions: HeLa, 0.1 or 0.5 μM, 24 or 48 h
# Procedure: (§1) To study in greater detail the apoptotic process induced by 66, we evaluated the expression of the cleaved fragment of poly(ADP)ribose polymerase (PARP), a common marker of apoptosis,[66] by Western blot analysis. HeLa cells were treated with compound 66 at 0.1 or 0.5 μM for 24 or 48 h. The cleavage fragment of PARP appeared at 24 h after beginning treatment with only 0.1 μM 66. The expression of two antiapoptotic proteins, Mcl-1 and XIAP, was also studied. Mcl-1, a member of the Bcl-2 family, is highly expressed in many types of tumors and takes part in the apoptotic response to multiple stimuli. […] Similarly, expression of Xiap, a member of the family of inhibitors of apoptosis proteins, was reduced (at 24 h) and diappeared (at 48 h) after HeLa cell treatment with 66 (Figure 9). The functions of this protein are to inhibit the activity of caspase-3, caspase-7, and caspase-9 through a direct interaction with these enzymes. Following this interaction, the entire apoptotic process is inhibited.[69]
# (§2) HeLa cells were incubated in the presence of the test compound and, after different times, were collected, centrifuged, and washed two times with ice cold PBS. The pellet was resuspended in lysis buffer. After the cells were lysed on ice for 30 min, lysates were centrifuged at 15 000g at 4 °C for 10 min. The protein concentration in the supernatant was determined using the BCA protein assay reagents (Pierce, Italy). Equal amounts of protein (10 μg) were resolved using sodium dodecyl sulfate–polyacrylamide gel electrophoresis (Criterion Precast, BioRad, Italy) and transferred to a PVDF Hybond-P membrane (GE Healthcare). Membranes were blocked with a bovine serum albumin solution (5% in Tween PBS 1×), and the membranes were gently rotated overnight at 4 °C in the albumin solution. Membranes were then incubated with primary antibodies against PARP cleaved fragment, cdc25c, cyclin B, p-cdc2^Tyr15, XIAP, and Mcl-1 (all from Cell Signaling) or GAPDH (Sigma-Aldrich) for 2 h at room temperature. Membranes were next incubated with peroxidase labeled secondary antibodies for 1 h. All membranes were visualized using ECL Select (GE Healthcare), and images were acquired using an Uvitec-Alliance imaging system (Uvitec, Cambridge, U.K.). To ensure equal protein loading, each membrane was stripped and reprobed with anti-GAPDH antibody. To obtain relative quantitative data, ImageJ software (NIH, USA) was used for scanning densitometry analysis of Western blots.
# [4] = test system: XIAP; test: Western blot, apoptosis proteins; conditions: HeLa
# Procedure: as §1, §2
# [5] = test system: PARP; test: Western blot, apoptosis proteins; conditions: HeLa, 24 h, 0.1 μM
# Procedure: as §1, §2
# [6] = test system: cdc25c; test: Western blot, G2/M checkpoint proteins; conditions: HeLa, 0.5 μM
# Procedure: (§3) Figure 6 Effects of 66 on G2/M checkpoint proteins. HeLa cells were treated with 0.1 or 0.5 μM compound 66 for 24 or 48 h. The cells were harvested and lysed for the detection of cdc25c, p-cdc2^Y15, and cyclin B expression by Western blot analysis. To confirm equal protein loading, each membrane was stripped and reprobed with anti-GAPDH antibody. The relative expression of proteins was analyzed by scanning densitometry using ImageJ software and reported as a ratio protein/GAPDH.
# as §2
# [7] = test system: cyclin B1; test: Western blot, G2/M checkpoint proteins; conditions: HeLa, 24 h, 0.5 μM
# Procedure: as §3, §2
# [8] = test system: phosphorylated cdc2; test: Western blot, G2/M checkpoint proteins; conditions: HeLa, after both 24 and 48 h
# Procedure: as §3, §2
# [9] = test system: HeLa cells; test: ROS production (H2-DCFDA); conditions: 48 h, 0.5 μM
# Procedure: One consequence of mitochondrial depolarization caused by the release of cytochrome c into the cytoplasm is the increase in reactive oxygen species (ROS).[65] Therefore, we wanted to evaluate whether ROS production increased following treatment with compound 66. To do this, we used the fluorescent probe 2,7-dichlorodihydrofluorescein diacetate (H2-DCFDA), which is oxidized to the fluorescent compound dichlorofluorescein (DCF) upon ROS production.
# The production of ROS was measured by flow cytometry using H2DCFDA (Molecular Probes), as previously described.[59] Briefly, after different times of treatment, cells were collected by centrifugation and resuspended in PBS containing H2DCFDA at the concentration of 0.1 μM. The cells were then incubated for 30 min at 37 °C, centrifuged, and resuspended in PBS. The fluorescence was directly recorded with the flow cytometer, using as excitation wavelength 488 nm and emission at 530 nm.
# [10] = test system: HeLa cells; test: Mitochondrial membrane potential (JC-1); conditions: 0.1 and 0.5 μM, 24 or 48 h
# Procedure: The mitochondrial membrane potential was measured with the lipophilic cationic dye 5,5′,6,6′ tetrachlo-1,1′,3,3′-tetraethylbenzimidazolcarbocyanine (JC-1) (Molecular Probes), as described.[73] The method is based on the ability of this fluorescent probe to enter selectively into mitochondria since it changes reversibly its color from green to red as membrane potential increases. This property is due to the reversible formation of JC-1 aggregates upon membrane polarization that causes a shift in the emitted light from 530 nm (i.e., emission of JC-1 monomeric form) to 590 nm (emission of JC-1-aggregate) when excited at 490 nm.
Compound,GI50 [1] [µM],"apoptotic cells ([2]; 24 h, 0.5 μM)",necrotic cells ([2]; 48 h),Mcl-1 levels [3],expression of Xiap ([4]; 24 h),expression of Xiap ([4]; 48 h),cleavage fragment of PARP [5],total cdc25c expression [6],cyclin B1 expression [7],expression of phosphorylated cdc2 [8],ROS production [9],percentage of cells with low Δψmt [10]
"CCOC(=O)c1cc2c(n1Cc1cccc(OC)c1)-c1oncc1CCC2 [Compound 63, Ethyl 9-(3-Methoxybenzyl)-4,5,6,9-tetrahydropyrrolo[2′,3′:3,4]cyclohepta[1,2-d][1,2]oxazole-8-carboxylate]",7.61,,,,,,,,,,,
"CCOC(=O)c1cc2c(n1Cc1cc(OC)cc(OC)c1)-c1oncc1CCC2 [Compound 66, Ethyl 9-(3,5-Dimethoxybenzyl)-4,5,6,9-tetrahydropyrrolo[2′,3′:3,4]cyclohepta[1,2-d][1,2]oxazole-8-carboxylate]",,significant increase,substantial increase,reduction,reduced,diappeared,appeared,strongly reduced,substantial increase,strongly decreased,induced the production of ROS,significant increase
